In patent US11179396B2, “Heterocyclic compounds as antibacterials” (Janssen Sciences Ireland Unlimited Company, priority 2016, dated 2021):
Values after ≈ are worked out from the molar mass of the structure shown.

How the values were obtained:
M. tuberculosis = details: cited from earlier work
M. tuberculosis H37Rv = details: strain M. tuberculosis H37Rv, inside macrophages; cited from earlier work
[1] = system: Mycobacterium tuberculosis strain EH 4.0 (361.269); test: Test 4: resazurin growth inhibition assay, M. tuberculosis strain EH 4.0; type: cell-based; details: read-out: pIC50 (converted)
Description: Test 4 (See Also Test 1 Above; in this Test a Different Strain of Mycobacterium tuberculosis Strain is Employed)
Appropriate solutions of experimental and reference compounds were made in 96 well plates with 7H9 medium. Samples of Mycobacterium tuberculosis strain EH 4.0 (361.269) were taken from cultures in stationary growth phase. These were first diluted to obtain an optical density of 0.3 at 600 nm wavelength and then diluted 1/100, resulting in an inoculum of approximately 5×10 exp5 colony forming units per well. Plates were incubated at 37° C. in plastic bags to prevent evaporation. After 7 days, resazurin was added to all wells. Two days later, fluorescence was measured on a Gemini EM Microplate Reader with 543 nm excitation and 590 nm emission wavelengths and MIC50 and/or pIC50 values (or the like, e.g. IC50, IC90, pIC90, etc) were (or may be) calculated. pIC50 values may be recorded below in μg/mL.

Row | Structure (SMILES) | activity against both replicating and non-replicating bacteria (M. tuberculosis) | MIC50 (M. tuberculosis H37Rv) [nM] | IC50 [1] [nM]
1 | CCc1nc2ccc(Cl)cn2c1C(=O)NCc1ccc(N2CCC(c3ccc(OC(F)(F)F)cc3)CC2)cc1 [Compound Q203] | highly active | 0.28 (≈ 0.156 ng/mL) | –
2 | CCc1nc2ccc(Cl)cn2c1C(=O)NCc1ccc(N2CC3CC(F)CC3C2)cc1 (stereo not drawn) [Cpd 1] | – | – | 39.8
3 | CCc1nc2sc(C)cn2c1C(=O)NCc1ccc(N2CC3CC(F)CC3C2)cc1 (stereo not drawn) [Cpd 2] | – | – | 50.1
4 | CCc1nc2n(c1C(=O)NCc1ccc(N3CC4CC(F)CC4C3)cc1)CCCC2 (stereo not drawn) [Cpd 3] | – | – | 100
5 | CCc1nc2ncc(Cl)cn2c1C(=O)NCc1ccc(N2CC3CC(F)CC3C2)cc1 (stereo not drawn) [Cpd 4] | – | – | 112
6 | CCc1nc2sc(C)cn2c1C(=O)NCc1ccc(N2CC3C(C2)C3C(F)(F)F)cc1 (stereo not drawn) [Cpd 7] | – | – | 31.6
7 | Cc1nn2ccccc2c1C(=O)NCc1ccc(N2C[C@H]3C[C@H](F)C[C@H]3C2)cc1 [Cpd 8] | – | – | 1120
8 | CCc1nc2ncc(Cl)cn2c1C(=O)NCc1ccc(N2C[C@@H]3CC(F)(F)C[C@@H]3C2)cc1 [Cpd 9] | – | – | 15.8
